# Assay: Seeded continuous crystallization in a microfluidic device; growth rates from optical images
# Conditions: room temperature, water/ethanol antisolvent
# [1] = Supersaturation S = ln(C/Cs,γ) = 0.319
structure (smiles),measurement,setting,value
"NCC(=O)O [β-Glycine, glycine]",G<010> experimental growth rate,"S = ln(C/Cs,α) = 0.30",194 ± 55 μm/min
same,G<010> experimental growth rate,"S = ln(C/Cs,α) = 0.39",235 ± 43 μm/min
same,G<010> experimental growth rate,"S = ln(C/Cs,α) = 0.47",250 ± 52 μm/min
"NCC(=O)O [γ-Glycine, glycine]","G<00-1>,exp growth rate",[1],4.4 ± 1.8 μm/min
same,"G{100, 010},exp growth rate",[1],3.2 ± 1.6 μm/min
same,"G{100, 010},exp growth rate","Supersaturation S = ln(C/Cs,γ) = 0.389",5.5 ± 1.6 μm/min
"NCC(=O)O [α-Glycine, glycine]","G<010>,exp growth rate of <010> crystal plane","S = ln(C/Cs,α) = 0.33",0.40 ± 0.25 μm/min
same,"G<011>, exp growth rate of <011> crystal plane","S = ln(C/Cs,α) = 0.33",2.22 ± 0.91 μm/min
same,"G<010>,exp growth rate of <010> crystal plane","S = ln(C/Cs,α) = 0.56",0.74 ± 0.16 μm/min
same,"G<011>, exp growth rate of <011> crystal plane","S = ln(C/Cs,α) = 0.56",3.34 ± 0.43 μm/min
same,"G<010>,exp growth rate of <010> crystal plane","S = ln(C/Cs,α) = 0.64",0.66 ± 0.23 μm/min
same,"G<011>, exp growth rate of <011> crystal plane","S = ln(C/Cs,α) = 0.64",4.78 ± 1.35 μm/min
